Results published in US10251958B2 (NEWSOUTH INNOVATIONS PTY LIMITED, priority 2013, dated 2019).
Oligonucleotides are written 5' to 3', each unit as a sugar letter and its base; * is a phosphorothioate linkage, no mark a phosphodiester; rarer units and linkages stand in square brackets, end groups in braces. Plain capitals give the bases only. d = 2'-deoxy (DNA)

How the values were obtained:
[1] = Nile Red encapsulation efficiency by Fluorescence Spectroscopy; type: physicochemical; details: preliminary polymer-protein aggregates loaded with Nile Red
Excerpt: After the formation of polymer-protein Curcumin carrying micelles of a desirable size, there was a clear need to determine the amount of Curcumin actually encapsulated. Preliminary aggregates were loaded with Nile Red dye to act as a makeshift drug and analysed by Fluorescence Spectroscopy. After comparison to a Calibration curve established from analysis of Nile Red concentrations dissolved in DMSO solvent, the intensity was backcalculated to yield a 30.4% encapsulation efficiency.

[2] = DLS hydrodynamic diameter of BSA conjugated copolymer (Example 2); type: physicochemical; details: for PDi: 0.1M PBS pH 7, DLS
Method: ^1H-NMR spectra were acquired to characterised compounds using CDCl3 or d-DMSO with a 300 MHz spectrometer. Thermogravimetric analysis (TGA) was carried out using TG5000 to quantify the amount of platinum conjugated to the copolymers. The sample (≤5 mg) was placed on a thermo-balance and heated from room temperature to 600° C. at 20° C./min, and held for an isothermal period of 60 minutes under nitrogen atmosphere. Diameter size of copolymers in 0.1M PBS buffer pH 7.0 was measured using a Malvern dynamic light scattering instrument (DLS) in a disposable plastic cuvette (1 cm path length). Fluorescence measurements were performed on Agilent Cary Eclipse Fluorescence Spectrometer using a 1 cm quartz cuvette. Fluorescence spectra were recorded between 400-800 nm at λex=495 nm, λem=520 nm with entrance and exit slit width of […]. SDS-PAGE was performed using standard techniques using a premixed electrophoresis buffer which contains 25 mM Tris, 192 mM glycine and 0.1% SDS (Tris/Glycine/SDS buffer) to determine the conjugation efficiency between the BSA-FITC and the copolymer. Samples were prepared for electrophoresis without the use of a reducing agent. The samples were mixed with bromophenol blue (0.01% w/v) solution as the marker. The samples were resolved through a 10% polyacrylamide gel which was performed using a BioRad Mini-Protean II electrophoresis setup at a constant voltage (150 V). The samples were stained using Colloidal Blue Coomassie G-250 (Bio-Rad), and left overnight. Gel images were recorded using a Bio-Rad GS-800 calibrated densitometer. Native BSA was used as a control.
The size and shape of the BSA conjugated copolymer in PBS solution was investigated using DLS and TEM.

[3] = Hydrodynamic diameter and zeta potential of materials and complexes (Example 3); type: physicochemical; details: pH 7; ISIS 5132 200 ug/ml, BSA 1 mg/ml, PDMAEMA 0.21 mg/ml
Method: The resulting conjugates were dialysed in 0.05 M PBS (pH5) for 12 h by changing solvent every 2 h. […] All the conditions were kept consistent to the corresponding oligonucleotide samples. In addition, the oligonucleotide transfection efficiency of the PEGMEMA-PDMAEAM cationic block copolymer was investigated. The same protocol was adopted to make the polyion complex micelles from this polymer solution.
The condensation of the oligonucleotide was therefore carried out when the conjugate solution was at pH5 and the oligonucleotide was dissolved in MilliQ water. The albumin-polymer conjugates with a pH of 5 was then slowly added to the solutions of ISIS 5132 with the concentration of 200 μg/ml (ζ=−29.87 mV at pH7). […] After the complex micelle was stable, the system was brought back to pH7. There are several reasons for this: to reduce the aggregation of the micelle, to protect the oligonucleotide and to keep the neutral environment for cells in the afterward cytotoxicity assays.

[4] = test system: prostate cancer cell lines; test: Cytotoxicity against three prostate cancer cell lines (Example 4); type: cell-based; details: chosen concentration range
Method: The product was tested for particle size and cytotoxicity against prostate cancer.

[5] = test system: cancer cells; details: most effective free Curcumin study results; read-out: free Curcumin concentration to bring about 50% cell death; cited from earlier work

Compound: CCN(CC)c1ccc2nc3c4ccccc4c(=O)cc-3oc2c1 [Nile Red]
- Nile Red encapsulation efficiency [1]: 30.4%

Compound: BSA-FITC
- Dh number (d/nm) ([2]; 0.1M PBS pH 7, 25° C.): 7.44 nm
- PDi [2]: 0.58

Compound: ISIS 5132: 20-base antisense phosphorothioate oligodeoxyribonucleotide: 5′TCCCGCCTGTGACATGCATT3′ (DNA dT*dC*dC*dC*dG*dC*dC*dT*dG*dT*dG*dA*dC*dA*dT*dG*dC*dA*dT*dT)
- Dh [3]: 0-107 nm
- Zeta potential [3]: −29.87 mV

Compound: COc1cc(/C=C/C(=O)CC(=O)/C=C/c2ccc(O)c(OC)c2)ccc1O [Curcumin]
- toxicity [4]: only negligible toxicity
- IC50 [5]: 10 µM

Compound: P(HPMA13-co-[(AC-DAP)9-Pt8])
- PDi [2]: 0.14
